Laboratory results as given in patent US20230340011A1 (Asteroid Therapeutics, priority 2022, published 2023).

Assays:
[1] = biological target: SREBP-2 (Homo sapiens (Human), UniProt Q12772); assay: In vitro assay SREBP-2: PathHunter U2OS SREBP-2 Nuclear Translocation Cell Line, U18666A-stimulated; type: cell-based; settings: PathHunter U2OS SREBP-2 nuclear translocation cells, U18666A 10 μM, overnight (16 hours)
[2] = biological target: LXRβ (Homo sapiens (Human), UniProt P55055); assay: In vitro assay LXRβ: PathHunter NHR CHO cells, LXRβ / Steroid Receptor Co-activator Peptide enzyme fragment complementation; type: cell-based; settings: PathHunter NHR CHO cells, full-length human LXRβ and SRCP, chemiluminescent signal; read-out: LXRβ PPI
Sequence of LXRβ (P55055 whole entry, the tested form may be a part): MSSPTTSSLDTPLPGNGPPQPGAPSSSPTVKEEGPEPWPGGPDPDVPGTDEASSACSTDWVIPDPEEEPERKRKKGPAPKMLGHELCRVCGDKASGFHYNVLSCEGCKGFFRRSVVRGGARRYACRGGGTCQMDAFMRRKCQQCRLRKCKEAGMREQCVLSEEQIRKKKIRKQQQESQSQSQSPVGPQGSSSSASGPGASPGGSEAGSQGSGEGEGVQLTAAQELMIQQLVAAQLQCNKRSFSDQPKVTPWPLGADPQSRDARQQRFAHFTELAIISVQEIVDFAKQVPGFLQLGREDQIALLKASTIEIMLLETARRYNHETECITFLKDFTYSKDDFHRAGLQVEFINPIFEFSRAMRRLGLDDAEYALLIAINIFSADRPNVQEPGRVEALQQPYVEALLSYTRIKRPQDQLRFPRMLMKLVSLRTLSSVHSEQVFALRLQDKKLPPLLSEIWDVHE
Method in brief: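 Enzyme fragment complementation read-out: CHO cells stably expressing ProLink-tagged full-length human LXRβ plus nuclear enzyme acceptor–SRCP fusion, seeded and held overnight at 37° C. Medium with charcoal-dextran filtered serum; final vehicle 1%. Chemiluminescence measured after signal generation.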

## C[C@H](CCC(=O)N1CCC(C(O)(C(F)(F)F)C(F)(F)F)CC1)[C@H]1CC[C@H]2[C@@H]3CC=C4C[C@@H](O)CC[C@]4(C)[C@H]3CC[C@]12C [Example 99, (R)-1-(4-(1,1,1,3,3,3-hexafluoro-2-hydroxypropan-2-yl)piperidin-1-yl)-4-((3S,8S,9S,10R,13R,14S,17R)-3-hydroxy-10,13-dimethyl-2,3,4,7,8,9,10,11,12,13,14,15,16,17-tetradecahydro-1H-cyclopenta[a]phenanthren-17-yl)pentan-1-one]
[1]
  IC50: < 250 nM
[2]
  EC50: > 10000 nM

## C[C@H](CCC(=O)N1CCC2(CC1)COC2)[C@H]1CC[C@H]2[C@@H]3CC=C4C[C@@H](O)CC[C@]4(C)[C@H]3CC[C@]12C [Example 80, (R)-4-((3S,8S,9S,10R,13R,14S,17R)-3-hydroxy-10,13-dimethyl-2,3,4,7,8,9,10,11,12,13,14,15,16,17-tetradecahydro-1H-cyclopenta[a]phenanthren-17-yl)-1-(2-oxa-7-azaspiro[3.5]nonan-7-yl)pentan-1-one]
[1]
  IC50: < 250 nM
[2]
  EC50: 1000 to 10000 nM

## CSC(=O)N1CCN(C(=O)CC[C@@H](C)[C@H]2CC[C@H]3[C@@H]4CC=C5C[C@@H](O)CC[C@]5(C)[C@H]4CC[C@]23C)CC1 [Example 551, (4R)-4-[(1R,3aS,3bS,7S,9aR,9bS,11aR)-7-hydroxy-9a,11a-dimethyl-1H,2H,3H,3aH,3bH,4H,6H,7H,8H,9H,9aH,9bH,10H,11H,11aH-cyclopenta[a]phenanthren-1-yl]-1-{4-[(methylsulfanyl)carbonyl]piperazin-1-yl}pentan-1-one]
[1]
  IC50: < 250 nM
[2]
  EC50: > 10000 nM

## C[C@H](CCC(=O)N(C)C1CCN(C(=O)N2CCCC2)CC1)[C@H]1CC[C@H]2[C@@H]3CC=C4C[C@@H](O)CC[C@]4(C)[C@H]3CC[C@]12C [Example 645, (4R)-4-[(1R,3aS,3bS,7S,9aR,9bS,11aR)-7-hydroxy-9a,11a-dimethyl-1H,2H,3H,3aH,3bH,4H,6H,7H,8H,9H,9aH,9bH,10H,11H,11aH-cyclopenta[a]phenanthren-1-yl]-N-methyl-N-[1-(pyrrolidine-1-carbonyl)piperidin-4-yl]pentanamide]
[1]
  IC50: < 250 nM
[2]
  EC50: > 10000 nM

## CC1CN(C(=O)N2CCN(C(=O)CC[C@@H](C)[C@H]3CC[C@H]4[C@@H]5CC=C6C[C@@H](O)CC[C@]6(C)[C@H]5CC[C@]34C)CC2)C1 [Example 664, (R)-4-((3S,8S,9S,10R,13R,14S,17R)-3-hydroxy-10,13-dimethyl-2,3,4,7,8,9,10,11,12,13,14,15,16,17-tetradecahydro-1H-cyclopenta[a]phenanthren-17-yl)-1-(4-(3-methylazetidine-1-carbonyl)piperazin-1-yl)pentan-1-one]
[1]
  IC50: < 250 nM
[2]
  EC50: > 10000 nM

## C[C@H](CCC(=O)N1CCC(S(=O)(=O)N(C)C)CC1)[C@H]1CC[C@H]2[C@@H]3CC=C4C[C@@H](O)CC[C@]4(C)[C@H]3CC[C@]12C [Example 290, 1-((R)-4-((3S,8S,9S,10R,13R,14S,17R)-3-hydroxy-10,13-dimethyl-2,3,4,7,8,9,10,11,12,13,14,15,16,17-tetradecahydro-1H-cyclopenta[a]phenanthren-17-yl)pentanoyl)-N,N-dimethylpiperidine-4-sulfonamide]
[1]
  IC50: < 250 nM
[2]
  EC50: > 10000 nM

## COC(=O)N1CCC(C(=O)NC[C@@H](C)[C@H]2CC[C@H]3[C@@H]4CC=C5C[C@@H](O)CC[C@]5(C)[C@H]4CC[C@]23C)CC1 [Example 591, Methyl 4-{[(2S)-2-[(1R,3aS,3bS,7S,9aR,9bS,11aS)-7-hydroxy-9a,11a-dimethyl-1H,2H,3H,3aH,3bH,4H,6H,7H,8H,9H,9aH,9bH,10H,11H,11aH-cyclopenta[a]phenanthren-1-yl]propyl]carbamoyl}piperidine-1-carboxylate]
[1]
  IC50: < 250 nM
[2]
  EC50: > 10000 nM

## C[C@H](CCC(=O)N1CCN(C(=O)N(C)C)[C@@H](C)C1)[C@H]1CC[C@H]2[C@@H]3CC=C4C[C@@H](O)CC[C@]4(C)[C@H]3CC[C@]12C [Example 573, (2S)-4-[(4R)-4-[(1R,3aS,3bS,7S,9aR,9bS,11aR)-7-hydroxy-9a,11a-dimethyl-1H,2H,3H,3aH,3bH,4H,6H,7H,8H,9H,9aH,9bH,10H,11H,11aH-cyclopenta[a]phenanthren-1-yl]pentanoyl]-N,N,2-trimethylpiperazine-1-carboxamide]
[1]
  IC50: < 250 nM
[2]
  EC50: > 10000 nM

## C[C@H](CCC(=O)N1CCN(C(=O)N(C)C)C[C@@H]1C)[C@H]1CC[C@H]2[C@@H]3CC=C4C[C@@H](O)CC[C@]4(C)[C@H]3CC[C@]12C [Example 582, (S)-4-((R)-4-((3S,8S,9S,10R,13R,14S,17R)-3-hydroxy-10,13-dimethyl-2,3,4,7,8,9,10,11,12,13,14,15,16,17-tetradecahydro-1H-cyclopenta[a]phenanthren-17-yl)pentanoyl)-N,N,3-trimethylpiperazine-1-carboxamide]
[1]
  IC50: < 250 nM
[2]
  EC50: > 10000 nM

## C[C@H](CCC(=O)N1CCN(C)C(=O)C1)[C@H]1CC[C@H]2[C@@H]3CC=C4C[C@@H](O)CC[C@]4(C)[C@H]3CC[C@]12C [Example 361, 4-[(4R)-4-[(1R,3aS,3bS,7S,9aR,9bS,11aR)-7-hydroxy-9a,11a-dimethyl-1H,2H,3H,3aH,3bH,4H,6H,7H,8H,9H,9aH,9bH,10H,11H,11aH-cyclopenta[a]phenanthren-1-yl]pentanoyl]-1-methylpiperazin-2-one]
[1]
  IC50: 250 to 1000 nM
[2]
  EC50: > 10000 nM

## C[C@H](CCc1cnccn1)[C@H]1CC[C@H]2[C@@H]3CC=C4C[C@@H](O)CC[C@]4(C)[C@H]3CC[C@]12C [Example 136, (3S,8S,9S,10R,13R,14S,17R)-10,13-dimethyl-17-((R)-4-(pyrazin-2-yl)butan-2-yl)-2,3,4,7,8,9,10,11,12,13,14,15,16,17-tetradecahydro-1H-cyclopenta[a]phenanthren-3-ol]
[1]
  IC50: < 250 nM
[2]
  EC50: 250 to 1000 nM

## C[C@H](CCC(=O)N1CCN(C(=O)OC2CC2)[C@@H](C)C1)[C@H]1CC[C@H]2[C@@H]3CC=C4C[C@@H](O)CC[C@]4(C)[C@H]3CC[C@]12C [Example 570, Cyclopropyl(S)-4-((R)-4-((3S,8S,9S,10R,13R,14S,17R)-3-hydroxy-10,13-dimethyl-2,3,4,7,8,9,10,11,12,13,14,15,16,17-tetradecahydro-1H-cyclopenta[a]phenanthren-17-yl)pentanoyl)-2-methylpiperazine-1-carboxylate]
[1]
  IC50: < 250 nM
[2]
  EC50: > 10000 nM

## C[C@H](CCC(=O)N1CC2(C1)CC(C)(CO)C2)[C@H]1CC[C@H]2[C@@H]3CC=C4C[C@@H](O)CC[C@]4(C)[C@H]3CC[C@]12C [Example 372, (R)-4-((3S,8S,9S,10R,13R,14S,17R)-3-hydroxy-10,13-dimethyl-2,3,4,7,8,9,10,11,12,13,14,15,16,17-tetradecahydro-1H-cyclopenta[a]phenanthren-17-yl)-1-(6-(hydroxymethyl)-6-methyl-2-azaspiro[3.3]heptan-2-yl)pentan-1-one]
[1]
  IC50: < 250 nM
[2]
  EC50: > 10000 nM

## COC([C@@H]1CCN(C(=O)CC[C@@H](C)[C@H]2CC[C@H]3[C@@H]4CC=C5C[C@@H](O)CC[C@]5(C)[C@H]4CC[C@]23C)C1)(C(F)(F)F)C(F)(F)F [Example 331, (4R)-4-[(1R,3aS,3bS,7S,9aR,9bS,11aR)-7-hydroxy-9a,11a-dimethyl-1H,2H,3H,3aH,3bH,4H,6H,7H,8H,9H,9aH,9bH,10H,11H,11aH-cyclopenta[a]phenanthren-1-yl]-1-[(3R)-3-(1,1,1,3,3,3-hexafluoro-2-methoxypropan-2-yl)pyrrolidin-1-yl]pentan-1-one]
[1]
  IC50: < 250 nM
[2]
  EC50: > 10000 nM

## Cc1nn(C)cc1N1CCN(C(=O)CC[C@@H](C)[C@H]2CC[C@H]3[C@@H]4CC=C5C[C@@H](O)CC[C@]5(C)[C@H]4CC[C@]23C)CC1 [Example 604, (4R)-4-[(1R,3aS,3bS,7S,9aR,9bS,11aR)-7-hydroxy-9a,11a-dimethyl-1H,2H,3H,3aH,3bH,4H,6H,7H,8H,9H,9aH,9bH,10H,11H,11aH-cyclopenta[a]phenanthren-1-yl]-1-[4-(1,3-dimethyl-1H-pyrazol-4-yl)piperazin-1-yl]pentan-1-one]
[1]
  IC50: < 250 nM
[2]
  EC50: > 10000 nM

## COC1CCN(C(=O)CC[C@@H](C)[C@H]2CC[C@H]3[C@@H]4CC=C5C[C@@H](O)CC[C@]5(C)[C@H]4CC[C@]23C)CC1 [Example 94, (R)-4-((3S,8S,9S,10R,13R,14S,17R)-3-hydroxy-10,13-dimethyl-2,3,4,7,8,9,10,11,12,13,14,15,16,17-tetradecahydro-1H-cyclopenta[a]phenanthren-17-yl)-1-(4-methoxypiperidin-1-yl)pentan-1-one]
[1]
  IC50: < 250 nM
[2]
  EC50: 250 to 1000 nM

## CC1CCN(C(=O)CC[C@@H](C)[C@H]2CC[C@H]3[C@@H]4C[C@@H](O)[C@H]5C[C@@H](O)CC[C@]5(C)[C@H]4CC[C@]23C)CC1 [Example C2, (R)-4-((3S,5S,6R,8S,9S,10R,13R,14S,17R)-3,6-dihydroxy-10,13-dimethylhexadecahydro-1H-cyclopenta[a]phenanthren-17-yl)-1-(4-methylpiperidin-1-yl)pentan-1-one]
[1]
  IC50: > 10000 nM
[2]
  EC50: > 10000 nM

## COC(=O)N1CCC12CN(C(=O)CC[C@@H](C)[C@H]1CC[C@H]3[C@@H]4CC=C5C[C@@H](O)CC[C@]5(C)[C@H]4CC[C@]13C)C2 [Example 552, methyl6-((R)-4-((3S,8S,9S,10R,13R,14S,17R)-3-hydroxy-10,13-dimethyl-2,3,4,7,8,9,10,11,12,13,14,15,16,17-tetradecahydro-1H-cyclopenta[a]phenanthren-17-yl)pentanoyl)-1,6-diazaspiro[3.3]heptane-1-carboxylate]
[1]
  IC50: 1000 to 10000 nM
[2]
  EC50: > 10000 nM
